# In patent publication US20250195498A1, “INHIBITOR OF CELLULAR PURINE NUCLEOTIDE SALVAGE PATHWAY ENZYME FOR USE IN THE TREATMENT AND/OR PREVENTION OF HELICOBACTER PYLORI INFECTION AND/OR DISEASE ASSOCIATED WITH SUCH INFECTION AND PHARMACEUTICAL COMPOSITION COMPRISING THE SAME” (UNIWERSYTET WARSZAWSKI, priority 2022, published 2025):
# Where “and” joins values, the source holds several entries; their conditions need not be identical. Equal entries are not always repeated. Where two headings read alike, the source gives them in different places.
# How the values were obtained:
# Type in all cases: cell-based, Helicobacter pylori
# H. pylori strain P12 = experiment: Growth curve method / MIC, strain P12; conditions: Helicobacter pylori
# Description: (§1) The representative PNP inhibitor from H. pylori included in this study was immucillin A. The experiment was conducted using the growth curve method (two-fold serial dilutions in liquid medium). The tested H. pylori strains were cultured in Petri dishes with BHI solid medium supplemented with 10% FBS and 1% H. pylori Selective Supplement antibiotic kit, in anaerostats under microaerophilic conditions (5% 02, 10% CO2, 85% N2) at 37° C. for 3 days. Liquid culture of H. pylori was conducted overnight with shaking at 37° C. under microaerophilic conditions in BHI medium supplemented with 10% FBS and 1% H. pylori Selective Supplement antibiotic kit. Subsequently, for the essential experiment of determining the minimum inhibitory concentration (MIC), double strengthened liquid BHI medium was prepared, that is, supplemented with 20% FBS and a 2% set of H. pylori Selective Supplement antibiotics.
# (§2) Bacterial proliferation inhibition experiments were carried out in 24-deep-well 2 ml flat-bottomed plates at a solution volume per well of 0.5 ml. In a single well, double strengthened (relative to the concentration planned for testing) solutions of the test inhibitor and double strengthened liquid BHI medium inoculated with H. pylori (10^4-10^5 CFU/ml in the final volume in the well, corresponding to the optical density of the culture OD600=0.05) were mixed together in a 1:1 ratio.
# (§3) Kanamycin at a concentration of 25 μg/ml (Irie et al., 1997) was used as a positive control, while Mili-Q deionized water and BHI medium not inoculated with bacteria were used as negative controls. Plates were shaken at 37° C., under microaerophilic conditions. […] After 24 hours, the OD600 of samples containing the negative control, i.e. with Mili-Q deionized water, was about 1.2-1.4, corresponding to a bacterial concentration of about […].
# (§4) In addition, the method proposed by Knezevic et al. (2018) was used to check whether the observed OD600 was from live bacterial cells. For this purpose, an equal volume of Christensen's double strength urea broth (that is, containing twice the concentration of all components) was added to the wells after incubation, and the plates were additionally incubated for 4 hours in an oxygen atmosphere at 37° C. During incubation, in wells with urease produced by live bacteria, urea is converted to ammonia and carbon dioxide, changing the pH of the solution and thus the colour of the phenol red indicator contained in the medium (from orange to purple).
# (§5) All experiments were performed in triplicate.
# Inhibition by PLP and its metabolic precursors of the growth of H. pylori strains: 26695, N6 and P12 in culture was investigated using the growth curve method as described in Example 3. From these experiments, the minimum inhibitory concentration was determined as the lowest concentration of a compound that inhibits the visible growth of the bacteria, compared to growth in control samples without the tested compounds. All experiments were carried out in triplicate.
# [1] = tested on: H. pylori strain M91 (MTZ + CLR resistant); experiment: Growth curve method / MIC, resistant strain M91; conditions: Helicobacter pylori, strain M91, MTZ + CLR resistant
# Description: as §1, §2, §3, §4, §5
# (§6) The antibacterial activity of two compounds, mefloquine (in the form of hydrochloride) and quinine, described in the literature as potent in vitro inhibitors of the PNP enzyme from Plasmodium falciparum (Dziekan et al., 2019), was tested. Using a two-fold serial dilution method in liquid medium (as described in Example 3), the MIC values for mefloquine and quinine were determined against clinical H. pylori strains resistant to MTZ, CLR and MTZ+CLR (M26, M91, M92 and M93), as well as the reference H. pylori strain 26695. Four clinical H. pylori strains isolated from adults, from primary infections (the subjects had never previously been treated against H. pylori infection) were tested. These strains come from the collection of the Department of Microbiology of the Medical University of Wroclaw and were obtained due to collaboration with Prof. Grażyna Gościniak, MD, PhD. The tested compounds belong to organic substances and are soluble in DMSO. The maximum tested concentration of quinine in H. pylori culture was 0.56 mM, and that of mefloquine was 2.25 mM. […] On each occasion, the effect of DMSO alone on the growth of the H. pylori strains tested was also checked. […] Kanamycin was used as a positive control and Mili-Q deionised water as a negative control. All experiments were carried out in triplicate. […]
# [2] = tested on: H. pylori strain M93 (MTZ resistant); experiment: Growth curve method / MIC, resistant strain M93; conditions: Helicobacter pylori, strain M93, MTZ resistant
# Description: as §1, §2, §3, §4, §5, §6
Compound,"MIC (H. pylori strain P12; P12, read-out: MIC (Table 7))","MIC (H. pylori strain P12; strain P12, read-out: MIC)",MIC ([1]; read-out: MIC),MIC ([1]; read-out: MIC (Table 7)),MIC ([2]; read-out: MIC),MIC ([2]; read-out: MIC (Table 7))
"Cc1ncc(CO)c(C=O)c1O.Cl [PI-h, pyridoxal hydrochloride]",2.5 µM,509 µg/mL and 2500 µM,255 µg/mL,1.25 µM,255 µg/mL and 1250 µM,1.25 µM
"Cc1ncc(COP(=O)(O)O)c(C=O)c1O [PLP, pyridoxal 5′-phosphate]",2.5 µM,618 µg/mL and 2500 µM,309 to 618 µg/mL,1.25 to 2.5 µM,309 µg/mL and 1250 µM,1.25 µM
